Data from patent US10654819B2, “Processes for the preparation of 2,5-furandicarboxylic acid and intermediates and derivatives thereof” (Stora Enso Oyj, priority 2016, dated 2020).

Assays:
[1] = FDCA solubility studies in various solvent compositions, visual inspection of dissolution (Example 23); type: physicochemical
Protocol: A series of samples containing various amounts of FDCA and mixed solvent compositions were prepared in sealed pressure ampules (typically containing 2-5 g material (FDCA and solvent composition)). For example, 200 mg FDCA, 900 mg NMP, and 900 mg de-ionized water were added to an 8 mL glass vial with a stir bar inside, corresponding to a mixture containing 10 wt % FDCA. Other samples corresponding to different wt % FDCA samples in various mixed solvent compositions were prepared in a similar manner. […] The reported FDCA solubility in Table 11 represents the maximum wt % FDCA that can be dissolved in the given solvent composition using this testing method.

[2] = FDCA solubility characterization in candidate solvents (Example 1); type: physicochemical
Protocol: Solvents were screened for the ability to dissolve FDCA. 10 ml of a candidate solvent was heated to a certain temperature and FDCA (Product No. F0710, TCI America) was added by small portions to the heated candidate solvent until the FDCA amount exceeded the solubility limit. After that, small volumes of solvent were added until the excess solids were completely dissolved. The experiment was repeated two times at each temperature and the average was taken as FDCA solubility. Five solvents were tested: (1) deionized water; (2) diglyme; (3) dioxane; (4) a 1:1 by volume mixture of diglyme with deionized water; and (5) a 4:1 by volume mixture of dioxane with deionized water. The results are depicted in FIG. 3 as a plot of FDCA Solubility (Weight %) as a function of temperature (° C.). […] However, when each of the organic solvents was combined with water, the resulting co-solvent appeared to provide a synergistic enhancement in FDCA solubilizing capability. […] Similarly, at 100° C., although FDCA solubility in water and dioxane individually was less than 1% (by weight) and less than 2% (by weight), respectively, the FDCA solubility trend line for the co-solvent system of 1:4 ratio of deionized water:dioxane, by volume, indicates 9% (by weight) FDCA solubility.

For `O=C(O)c1ccc(C(=O)O)o1` [FDCA, 2,5-furandicarboxylic acid], the FDCA solubility ([1]; Bu^tOH 50 wt. % / H2O 50 wt. %, 100 ° C.) was 7.0 wt. %, the FDCA solubility ([1]; Bu^tOH 75 wt. % / H2O 25 wt. %, 100 ° C.) was 7.5 wt. % and the FDCA solubility ([1]; MEK 25 wt. % / H2O 75 wt. %, 100 ° C.) was 5.5 wt. %. It also gave an FDCA solubility ([1]; MEK 90 wt. % / H2O 10 wt. %, 100 ° C.) of 4.0 wt. %, an FDCA solubility ([1]; NMP 20 wt. % / H2O 80 wt. %, 23 ° C.) of 0.3 wt. % and an FDCA solubility ([1]; NMP 20 wt. % / H2O 80 wt. %, 100 ° C.) of 4.0 wt. %. For the same compound, the FDCA solubility ([1]; NMP 20 wt. % / H2O 80 wt. %, 120 ° C.) was 7.5 wt. %, the FDCA solubility ([1]; NMP 35 wt. % / H2O 65 wt. %, 23 ° C.) was 0.5 wt. % and the FDCA solubility ([1]; NMP 35 wt. % / H2O 65 wt. %, 100 ° C.) was 9.0 wt. %. The FDCA solubility ([1]; NMP 35 wt. % / H2O 65 wt. %, 120 ° C.) was 13.5 wt. %, the FDCA solubility ([1]; NMP 50 wt. % / H2O 50 wt. %, 100 ° C.) was 14.5 wt. % and the FDCA solubility ([1]; NMP 50 wt. % / H2O 50 wt. %, 120 ° C.) was 19.5 wt. %. The FDCA solubility ([1]; gamma-valerolactone 25 wt. % / H2O 75 wt. %, 100 ° C.) was 4.0 wt. %, the FDCA solubility ([1]; gamma-valerolactone 50 wt. % / H2O 50 wt. %, 100 ° C.) was 7.0 wt. % and the FDCA solubility ([1]; gamma-valerolactone 75 wt. % / H2O 25 wt. %, 100 ° C.) was 6.5 wt. %. The FDCA solubility ([2]; in 1:1 deionized water:diglyme by volume, 100° C.) was 9 % (by weight), the FDCA solubility ([2]; in 1:4 deionized water:dioxane by volume, 100° C., from trend line) was 9 % (by weight) and the FDCA solubility ([2]; in diglyme, 22° C. to 100° C.) was “less than 2 % by weight”. The FDCA solubility ([2]; in diglyme, 100° C.) was “less than 2 % (by weight)”, the FDCA solubility ([2]; in dioxane, 22° C. to 100° C.) was “less than 2 % by weight” and the FDCA solubility ([2]; in dioxane, 100° C.) was “less than 2 % (by weight)”. For the same compound, the FDCA solubility ([2]; in water, 22° C. to 140° C.) was “less than 2 % by weight” and the FDCA solubility ([2]; in water, 100° C.) was “less than 1 % (by weight)”.
